{"source": "patent US4359531A", "about": "“Production of isomaltulose” (Talres Development (N.A.) N.V., priority 1979, dated 1982)", "test_system": "isomaltulose-synthesising activity of the immobilized cells", "experiment": "Effect of chloramphenicol in the sucrose substrate on immobilized cells", "type": "cell-based, Erwinia rhapontici", "conditions": "0.1 g/l in 55% (w/v) sucrose", "text": "This hypothesis was confirmed when 0.1 g/l of chloramphenicol, which inhibits protein synthesis, was included in the 55% (w/v) sucrose used as substrate.", "data": [{"compound": "O=C(N[C@H](CO)[C@H](O)c1ccc([N+](=O)[O-])cc1)C(Cl)Cl", "note": "[chloramphenicol]", "values": [{"measurement": "isomaltulose-synthesising activity in presence of chloramphenicol", "result": "unaffected"}, {"measurement": "cell division in presence of chloramphenicol", "setting": "even when nutrients supplied", "result": "no cell division took place"}]}]}
